Counter-ions that a name gives are not always drawn. Like-named read-outs stand apart in the source and are kept apart here.
System: hPSC-NSCs
Test: RT-PCR expression of dopamine neuron genes in hPSC-NSCs treated with small molecule hits
Format: cell-based, human
Settings: for fold induction at 2.5 µM: Homo sapiens, Neuron, 336 h
Experimental: The method specifically involved treating both hESC-H9-NSCs (Invitrogen) and hPSC-NSCs with Purmorphamine (2 μM) and FGF8 (100 ng/mL) in NB medium [NeuroBasal medium, 1× GlutaMAX, 1× N2/B27 Supplement (Invitrogen)] for 7 days. After 7 days of Purmorphamine and FGF8 treatment, the NSCs were dissociated with Accutase (Sigma) and plated 20,000 cells/mL into Matrigel coated 96 well plates and treated with small molecule library (Torcris 1120 Biologically Active Compounds) at 2.5 μM final concentration for two weeks (FIG. 6A). Two weeks after treatment with small molecules, all wells were visually observed and scored based on neurite density and dopamine release. For measuring neurite density, cells were fixed with 4% paraformaldehyde and phase contrast images were acquired using Cellavista Cell Imaging System (Roche Applied Science) from randomly selected fields. Neurite density was measured using the Cellavista density software image processing program. Each experimental condition was done in duplicate wells, and at least three independent experiments were conducted to acquire the final results.
Conditioned medium from the top neurite inducers (Table 1) (wells containing the highest density of neurites compare to control 0.1% DMSO treated) were collected and analyzed using a dopamine ELISA assay (Cosmo Bio). Conditioned medium was collected from samples containing 50,000 cells per well and centrifuged at 3000 RPM to remove cell debris. Supernatant was then collected and analyzed for quantitative determination of dopamine using a commercial dopamine ELISA assay kit (CusaCosmo Bio). Data analysis was performed using the microtiter plate reader (BIO-TEK Synergy 2). The results presented are from three independent experiments (n=3) and represented as mean±standard error of mean (s.e.m.) and statistical analysis was performed using the two-tailed Student's t-test with a confidence level of 95% (α=0.05) with statistical significance of P<0.05. Additionally, total RNA from each well were collected and analyze by RT-PCR for expression of TuJ1, MAP2, TH, GRK2, EN1, DAT, AADC, PAX2, NURR1, PITX3 and LMX1B from hPSC-NSCs (Table 2). […] Analysis of the ELISA data indicated the top small molecule neurite inducers produced higher levels of dopamine than control non-treated cells (1.5 ng/mL). […] The percentages of TH positive cells produced by chemical treatment with Kenpaullone (33%), Guggulsterone (35%), Kynurenic Acid (19%), Immedthridine Dihydrobromide (21%), and Dimaprit Dihydrochloride (18%) were higher than 15% of TH positive cells obtained from hPSC-NSCs differentiated for ≥1 month using a standard dopaminergic differentiation medium (BDNF 20 ng/mL, GDNF 20 ng/mL, cAMP 200 μM, Abscorbic Acid 200 μM, TGFβ3 2 ng/mL and DAPT).
Total RNA from at least triplicate samples with around 1 million cells each was isolated using either QIAsymphony automatic purification system or RNeasy Plus Mini kit, according to manufacturer's instructions (Qiagen). Total RNA was used for reverse transcription with the iScript cDNA synthesis kit (Biorad) and Px2 Thermal Cycler (Thermo Scientific). To analyze gene expression, PCR reactions were performed in duplicate using 1/25-th of the cDNA per reaction and the QuantiTect Primer Assay and Quantitest SYBR Green master mix (Qiagen). qPCR was performed using the Rotor-Gene Q (Qiagen) 5 min at 95° C., 5 s at 92° C., and 20 s at 60° C. for 37 cycles followed by melt to check the specificity of the amplicons from 50 to 99° C. raising by 1° C. each step. Relative quantification was performed against a standard curve and quantified values were normalized against the input determined by PPIG. The primers used for the analysis are listed in Supplementary Table S1. […]

[1] = hPSC-NSCs primed 7 days with Purmorphamine and FGF8, small molecule 2.5 μM for two weeks
[2] = hPSC-NSCs primed 7 days with Purmorphamine and FGF8, small molecule 2.5 μM for two weeks, read-out: DDC (AADC) expression by RT-PCR
[3] = hPSC-NSCs primed 7 days with Purmorphamine and FGF8, small molecule 2.5 μM for two weeks, read-out: EN1 expression by RT-PCR
[4] = hPSC-NSCs primed 7 days with Purmorphamine and FGF8, small molecule 2.5 μM for two weeks, read-out: KCNJ6 expression by RT-PCR
[5] = hPSC-NSCs primed 7 days with Purmorphamine and FGF8, small molecule 2.5 μM for two weeks, read-out: LMX1B expression by RT-PCR
[6] = hPSC-NSCs primed 7 days with Purmorphamine and FGF8, small molecule 2.5 μM for two weeks, read-out: MAP2 expression by RT-PCR
[7] = hPSC-NSCs primed 7 days with Purmorphamine and FGF8, small molecule 2.5 μM for two weeks, read-out: NR4A2 (NURR1) expression by RT-PCR
[8] = hPSC-NSCs primed 7 days with Purmorphamine and FGF8, small molecule 2.5 μM for two weeks, read-out: PITX3 expression by RT-PCR
[9] = hPSC-NSCs primed 7 days with Purmorphamine and FGF8, small molecule 2.5 μM for two weeks, read-out: Pax2 expression by RT-PCR
[10] = hPSC-NSCs primed 7 days with Purmorphamine and FGF8, small molecule 2.5 μM for two weeks, read-out: TH1 expression by RT-PCR
[11] = hPSC-NSCs primed 7 days with Purmorphamine and FGF8, small molecule 2.5 μM for two weeks, read-out: Tubb3 expression by RT-PCR
[12] = hPSC-NSCs primed 7 days with Purmorphamine and FGF8, small molecule 2.5 μM for two weeks, read-out: SLC6A3 (DAT) expression by RT-PCR

SMILES | DDC (AADC) expression by RT-PCR [1] | EN1 expression by RT-PCR [1] | KCNJ6 (GRK2) expression by RT-PCR [1] | LMX1B expression by RT-PCR [1] | MAP2 expression by RT-PCR [1] | NR4A2 (NURR1) expression by RT-PCR [1] | PITX3 expression by RT-PCR [1] | Pax2 expression by RT-PCR [1] | SLC6A3 (DAT) expression by RT-PCR [1] | TH1 expression by RT-PCR [1] | Tubb3 expression by RT-PCR [1] | further results
Cc1cc(C(=O)O)sc1C(N)C(=O)O (stereo not drawn) [3-MATIDA] | 80.55 | 7.3 | 1.21 | 2.99 | 10.7 | 3.06 | 0.46 | 0.65 | 1.42 | 5.1 | 3.74 | 
Br.CCCN(CCC)C1CCc2cccc(O)c2C1 (stereo not drawn) [8-Hydroxy-DPAT hydrobromide] | 124.29 | 11.69 | 0.9 | 5.42 | 14.43 | 7.66 |  | 1.25 | 19.9 | 7.32 | 7.8 | 
N[C@@H]1CCN(O)C1=O [(R)-(+)-HA-966] | 104.03 | 7.26 | 1.02 | 3.94 | 10.66 | 3.91 | 0.23 | 4.7 | 26.39 | 6.75 | 5.61 | 
Cc1nnc2ccc(-c3cccc(C(F)(F)F)c3)nn12 [CL 218872] | 8.73 | 5.69 | 0.43 | 2.52 | 8.94 | 1.79 | 0.08 | 0.09 | 0.98 | 13.89 | 4.3 | 
Nc1nc(Nc2ccccc2)nc2c1ncn2[C@@H]1O[C@H](CO)[C@@H](O)[C@H]1O [CV 1808] | 16.69 | 5.56 | 0.36 |  | 8.66 | 1.56 | 0.7 |  | 0.94 | 12.51 | 3.86 | 
CCCC[C@@H](C=O)NC(=O)[C@H](CC(C)C)NC(=O)OCc1ccccc1 [Calpeptin] |  |  |  |  |  |  |  |  |  |  |  | fold induction at 2.5 µM (read-out: SLC6A3 (DAT) expression by RT-PCR): 6.57; fold induction at 2.5 µM [2]: 295; fold induction at 2.5 µM [3]: 6.93; fold induction at 2.5 µM [4]: 4.43; fold induction at 2.5 µM [5]: 2.9; fold induction at 2.5 µM [6]: 12.9; fold induction at 2.5 µM [7]: 2.45; fold induction at 2.5 µM [8]: 0.37; fold induction at 2.5 µM [9]: 3.54; fold induction at 2.5 µM [10]: 15.2; fold induction at 2.5 µM [11]: 6.1
CC(C)(C)c1cc(C(=O)/C=C/c2ccc(C(=O)O)cc2)cc(C(C)(C)C)c1 [Ch 55] | 22.86 | 11.61 | 0.25 | 1.54 | 5.25 | 77.93 | 0.13 | 0.06 | 0.11 | 1.19 | 3.48 | 
O=S(=O)(c1cccc2cnccc12)N1CCCNCC1 [Fasudil hydrochloride] |  |  |  |  |  |  |  |  |  |  |  | fold induction at 2.5 µM [2]: 32.4; fold induction at 2.5 µM [3]: 8.69; fold induction at 2.5 µM [4]: 1.57; fold induction at 2.5 µM [5]: 3.5; fold induction at 2.5 µM [6]: 11.6; fold induction at 2.5 µM [7]: 4.53; fold induction at 2.5 µM [8]: 0.27; fold induction at 2.5 µM [9]: 0.27; fold induction at 2.5 µM [12]: 2.79; fold induction at 2.5 µM [10]: 5.53; fold induction at 2.5 µM [11]: 5.67
O=C(O)Cc1cccnc1C(=O)O [Homoquinolinic acid] | 20.19 | 4.83 | 1.76 | 2.32 | 10.03 | 1.99 | 0.4 | 0.05 | 19.18 | 10.77 | 2.95 | 
Cl.O=C(O)COc1ccc(OCCNC[C@H](O)COc2ccccc2)cc1 [ICI 215,001 hydrochloride] | 29.34 | 8.52 | 1.48 | 4.79 | 11.2 | 2.88 |  | 39.43 | 1.77 | 6.04 | 5.54 | 
N[C@@H](CS(=O)O)C(=O)O [L-Cysteinesulfinic acid] | 17.27 | 5.76 | 3.02 | 2.66 | 9.52 | 2.02 |  | 0.22 | 1.54 | 7.84 | 3.41 | 
c1ccc(-c2[nH]ncc2-c2ccnc3ccccc23)nc1 [LY 364947] | 64.48 | 7.42 | 1.09 |  | 10.48 | 3.01 |  |  | 5.08 | 5.23 | 4.23 | 
O=C1N(c2ccccc2)c2ccccc2C1(Cc1ccncc1)Cc1ccncc1 [Linopirdine dihydrochloride] |  |  |  |  |  |  |  |  |  |  |  | fold induction at 2.5 µM [2]: 7.02; fold induction at 2.5 µM [3]: 4.06; fold induction at 2.5 µM [4]: 0.16; fold induction at 2.5 µM [5]: 2.84; fold induction at 2.5 µM [6]: 7.02; fold induction at 2.5 µM [7]: 0.69; fold induction at 2.5 µM [8]: 0.26; fold induction at 2.5 µM [9]: 0.3; fold induction at 2.5 µM [12]: 0.28; fold induction at 2.5 µM [10]: 8.61; fold induction at 2.5 µM [11]: 3.74

Reference: patent US9926529B2, “Derivation of neural stem cells and dopaminergic neurons from human pluripotent stem cells” (International Stem Cell Corporation, priority 2012, dated 2018)
